These results are taken from patent EP4722219A1 (Gan & Lee Pharmaceuticals Co., Ltd., priority 2023, dated 2024).

Common to all, as to format: cell-based
The target in experiment [1] is T1, SMARCA2 (Homo sapiens, UniProt P51531). Description: SMARCA2 degradation in HeLa cells (Western blot). The arrangement: endogenous in cells. To be noted: 4 hours. The protocol: (§1) Test Example 10 Degradation rate (%) of SMARCA2/4 by the PROTAC compounds of the present invention in HeLa cells and SW1573 cells
HeLa cells were seeded at 1.2 x 10^5 cells/well in a 6-well plate. 2 mL of EMEM medium supplemented with 10% FBS was added to each well and the culture dish was incubated overnight to allow the cells to adhere. The next day, 1 µL of 160 µM and 1 µL of 2 µM compound were added to the corresponding wells, resulting in final compound concentrations of 80 nM and 1 nM, respectively, and a final DMSO concentration of 0.05%. The cells were returned to the incubator and incubated for another 4 hours.
(§2) After 4 hours, cells were harvested, the culture medium was aspirated, and the cells were rinsed once with 1 mL/well PBS. The PBS was aspirated, and 40 µL/well of RIPA lysis buffer containing protease inhibitors was added. After lysis and centrifugation, total protein extracts were obtained, and protein concentration in the extracts was determined by BCA assay. Protein electrophoresis was performed by SDS-PAGE, followed by constant voltage electrophoresis at 100 V for 60 minutes and the protein was then transferred to a PVDF membrane. The PVDF membrane was blocked in 5% skim milk powder for 1 hour at room temperature. Primary antibodies (SMARCA2: CST#11966S, SMARCA4: CST#49360S, GAPDH: CST#5174S) were added and incubated overnight at 4°C. After washing the membrane, secondary antibodies were added and incubated at room temperature for 1 hour (protected from the light). After washing, the membrane was exposed using an Odyssey luminometer. Grayscale analysis of bands was performed using Image Studio software.
(§3) The degradation rate (%) of SMARCA2/4 by the PROTAC compounds of the present invention in HeLa cells and SW1573 cells is shown in Table 10. Table 10 Degradation rate of SMARCA2/4 by PROTAC compounds of the present invention in HeLa cells and SW1573 cells (%)
Background: A western blot detects proteins with antibodies after separation by electrophoresis.

In experiment [2] the target is T2, SMARCA4 (Homo sapiens, UniProt P51532). Description: SMARCA4 degradation in SW1573 cells (Western blot). The arrangement: endogenous in cells; host or cells: SW1573. As to conditions: 24 hours; for Dmax at 0.001 µM / Dmax at 0.08 µM: read-out: Degradation rate of SMARCA4 in SW1573 cells (%). The protocol: SW1573 cells were seeded at 2x10^5Cells/well in a 6-well plate. 2 mL of EMEM medium supplemented with 10% FBS was added to each well and was incubated overnight to allow cell attachment. […] The cells were returned to the incubator and incubated for another 24 hours.
as §2, with “After 24” for “After 4”, “the” for “the culture”, “temperature. […]” for “temperature. Primary antibodies (SMARCA2: CST#11966S, SMARCA4: CST#49360S, GAPDH: CST#5174S) were added and incubated overnight at 4°C.”
as §3

For experiment [3], the target named is T1, SMARCA2. Description: SMARCA2 degradation in SW1573 cells (Western blot). Also on record: endogenous in cells; host or cells: SW1573. As to conditions: 24 hours. As to the method:
as §1
SW1573 cells were seeded at 2x10^5Cells/well in a 6-well plate. 2 mL of EMEM medium supplemented with 10% FBS was added to each well and was incubated overnight to allow cell attachment. The next day, 1 µL of 160 µM and 1 µL of 2 µM compound were added to the corresponding wells for treatment, resulting in final compound concentrations of 80 nM and 1 nM, respectively, and a final DMSO concentration of 0.05%. The cells were returned to the incubator and incubated for another 24 hours.
as §2, with “After 24” for “After 4”, “the” for “the culture”
as §3

The target of experiment [4] is T2, SMARCA4. Description: SMARCA4 degradation in HeLa cells (Western blot). Also on record: endogenous in cells. As to conditions: 4 hours; for Dmax at 0.001 µM / Dmax at 0.08 µM: read-out: Degradation rate of SMARCA4 in HeLa cells (%). As to the method: HeLa cells were seeded at 1.2 x 10^5 cells/well in a 6-well plate. 2 mL of EMEM medium supplemented with 10% FBS was added to each well and the culture dish was incubated overnight to allow the cells to adhere. […] The cells were returned to the incubator and incubated for another 4 hours.
as §2, with “Primary antibodies (SMARCA2: CST#11966S, SMARCA4: CST#49360S, GAPDH: CST#5174S) were added and incubated overnight at 4°C.” left out
as §3

T2 sequence (P51532 whole entry): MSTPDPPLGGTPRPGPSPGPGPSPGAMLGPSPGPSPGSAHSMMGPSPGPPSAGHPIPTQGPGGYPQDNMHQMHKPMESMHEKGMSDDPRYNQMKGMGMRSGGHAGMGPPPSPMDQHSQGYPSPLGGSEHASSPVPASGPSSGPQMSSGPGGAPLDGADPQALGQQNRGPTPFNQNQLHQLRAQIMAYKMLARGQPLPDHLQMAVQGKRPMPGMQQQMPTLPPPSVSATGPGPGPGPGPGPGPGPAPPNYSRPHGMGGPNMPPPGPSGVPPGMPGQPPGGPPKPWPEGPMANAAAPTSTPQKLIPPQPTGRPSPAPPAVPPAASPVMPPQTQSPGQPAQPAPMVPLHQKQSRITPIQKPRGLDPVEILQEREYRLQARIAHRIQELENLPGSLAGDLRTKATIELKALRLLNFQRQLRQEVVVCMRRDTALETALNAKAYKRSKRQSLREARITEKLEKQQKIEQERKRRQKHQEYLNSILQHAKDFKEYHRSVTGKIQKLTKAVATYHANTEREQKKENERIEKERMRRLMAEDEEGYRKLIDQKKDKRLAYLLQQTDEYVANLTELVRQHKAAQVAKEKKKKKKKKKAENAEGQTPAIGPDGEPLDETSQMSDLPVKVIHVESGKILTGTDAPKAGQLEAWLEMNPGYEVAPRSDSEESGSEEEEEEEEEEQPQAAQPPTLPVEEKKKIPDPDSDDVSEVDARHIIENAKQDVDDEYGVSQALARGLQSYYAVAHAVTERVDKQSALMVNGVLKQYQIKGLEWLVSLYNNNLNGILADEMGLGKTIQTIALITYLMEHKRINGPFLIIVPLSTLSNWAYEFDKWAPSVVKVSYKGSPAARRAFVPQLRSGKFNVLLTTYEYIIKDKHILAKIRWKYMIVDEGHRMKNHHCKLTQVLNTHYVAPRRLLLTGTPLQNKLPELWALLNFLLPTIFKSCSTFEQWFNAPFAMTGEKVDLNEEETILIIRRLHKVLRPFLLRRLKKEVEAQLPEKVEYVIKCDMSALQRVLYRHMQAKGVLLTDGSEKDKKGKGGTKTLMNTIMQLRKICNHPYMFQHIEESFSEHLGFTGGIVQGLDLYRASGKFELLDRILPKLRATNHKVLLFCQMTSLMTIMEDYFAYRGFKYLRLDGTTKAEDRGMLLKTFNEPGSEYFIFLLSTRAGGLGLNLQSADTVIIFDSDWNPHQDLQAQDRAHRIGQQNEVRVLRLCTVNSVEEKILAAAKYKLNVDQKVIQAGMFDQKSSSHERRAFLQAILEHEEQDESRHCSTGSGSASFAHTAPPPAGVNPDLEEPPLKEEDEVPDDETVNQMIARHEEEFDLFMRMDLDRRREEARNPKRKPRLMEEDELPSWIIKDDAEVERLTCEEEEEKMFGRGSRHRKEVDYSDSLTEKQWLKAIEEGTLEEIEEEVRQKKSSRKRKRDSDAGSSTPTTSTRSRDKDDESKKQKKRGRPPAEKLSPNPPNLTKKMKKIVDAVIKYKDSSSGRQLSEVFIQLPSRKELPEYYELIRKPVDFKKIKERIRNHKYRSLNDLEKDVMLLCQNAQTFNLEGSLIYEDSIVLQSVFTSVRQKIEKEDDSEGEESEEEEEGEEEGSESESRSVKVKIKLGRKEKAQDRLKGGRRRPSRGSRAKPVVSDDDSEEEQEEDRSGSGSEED
T1 sequence (P51531 whole entry): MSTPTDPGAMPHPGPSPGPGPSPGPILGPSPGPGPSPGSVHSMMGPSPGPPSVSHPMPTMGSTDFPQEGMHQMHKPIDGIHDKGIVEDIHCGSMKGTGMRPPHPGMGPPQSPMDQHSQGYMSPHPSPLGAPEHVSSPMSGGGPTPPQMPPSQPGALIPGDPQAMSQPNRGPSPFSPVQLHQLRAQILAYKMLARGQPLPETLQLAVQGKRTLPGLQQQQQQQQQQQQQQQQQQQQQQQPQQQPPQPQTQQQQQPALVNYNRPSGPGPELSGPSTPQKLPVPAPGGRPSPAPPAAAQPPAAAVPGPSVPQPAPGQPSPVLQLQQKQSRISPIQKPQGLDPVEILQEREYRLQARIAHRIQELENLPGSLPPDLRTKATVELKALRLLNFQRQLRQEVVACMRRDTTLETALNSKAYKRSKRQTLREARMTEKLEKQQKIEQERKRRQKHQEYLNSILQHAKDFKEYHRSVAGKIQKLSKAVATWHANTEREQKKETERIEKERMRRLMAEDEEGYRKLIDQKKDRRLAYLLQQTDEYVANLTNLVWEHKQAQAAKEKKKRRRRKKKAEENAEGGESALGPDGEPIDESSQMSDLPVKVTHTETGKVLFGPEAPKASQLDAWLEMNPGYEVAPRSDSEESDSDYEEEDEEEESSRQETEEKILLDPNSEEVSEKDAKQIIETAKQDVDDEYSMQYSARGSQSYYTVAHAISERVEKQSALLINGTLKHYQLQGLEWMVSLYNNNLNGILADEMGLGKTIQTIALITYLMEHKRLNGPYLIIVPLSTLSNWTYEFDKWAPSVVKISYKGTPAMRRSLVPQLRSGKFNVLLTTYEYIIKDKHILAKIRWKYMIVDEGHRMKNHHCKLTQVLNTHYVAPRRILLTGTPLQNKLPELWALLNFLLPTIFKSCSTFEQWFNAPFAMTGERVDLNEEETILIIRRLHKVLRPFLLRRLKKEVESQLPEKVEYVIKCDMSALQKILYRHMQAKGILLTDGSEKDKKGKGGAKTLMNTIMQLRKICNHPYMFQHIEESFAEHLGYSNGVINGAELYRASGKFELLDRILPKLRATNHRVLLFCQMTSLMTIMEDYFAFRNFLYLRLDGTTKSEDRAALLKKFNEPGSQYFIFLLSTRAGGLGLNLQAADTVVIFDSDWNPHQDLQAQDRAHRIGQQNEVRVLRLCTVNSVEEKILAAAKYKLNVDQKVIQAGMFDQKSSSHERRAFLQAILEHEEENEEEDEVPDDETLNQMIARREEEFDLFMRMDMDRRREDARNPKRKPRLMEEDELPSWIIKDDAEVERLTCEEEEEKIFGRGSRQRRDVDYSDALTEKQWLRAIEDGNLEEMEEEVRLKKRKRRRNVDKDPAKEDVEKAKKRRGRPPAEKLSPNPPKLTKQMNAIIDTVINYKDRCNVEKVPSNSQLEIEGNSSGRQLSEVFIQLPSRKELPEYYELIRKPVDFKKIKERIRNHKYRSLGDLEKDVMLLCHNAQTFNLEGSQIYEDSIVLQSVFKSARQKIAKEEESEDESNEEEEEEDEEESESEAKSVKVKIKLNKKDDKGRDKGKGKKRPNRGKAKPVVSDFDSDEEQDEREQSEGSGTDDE

`Cn1c(=O)n(C2CCC(=O)NC2=O)c2cc3c(cc21)OC1(CC3)CCN(C2CC3(CCC(C#Cc4cc(-c5ccccc5O)nnc4N)CC3)C2)CC1` (stereo not shown) [SM-P-1, 3-(1'-(7-((3-amino-6-(2-hydroxyphenyl)pyridazin-4-yl)ethynyl)spiro[3.5]nonan-2-yl)-3-methyl-2-oxo-2,3,7,8-tetrahydro-1H-spiro[chromeno[6,7-d]imidazole-6,4'-piperidin]-1-yl)piperidine-2,6-dione]: the “Degradation rate of SMARCA2 in HeLa cells (%)” value in experiment [1] (1 nM) is on record as 90%; in experiment [1] (80 nM), 100%. Further, the values for the Dmax at 0.001 µM in experiment [2] (1 nM) and in experiment [4] (1 nM) were 43% and 85%, respectively. In addition, the Dmax at 0.08 µM stood at 97% in experiment [2] (80 nM) and 98% in experiment [4] (80 nM). The “Degradation rate of SMARCA2 in SW1573 cells (%)” value in experiment [3] (1 nM) amounted to 72%; in experiment [3] (80 nM) it was 96%.
As for `Nc1nnc(-c2ccccc2O)cc1C#CC1CCC2(CC1)CC(N1CCC3(CC1)CCC1(CC3)COc3c1ccc1c3CN(C3CCC(=O)NC3=O)C1=O)C2` (stereo not shown) [SM-P-2], the “Degradation rate of SMARCA2 in HeLa cells (%)” value came out at 95% in experiment [1] (1 nM) and 98% in experiment [1] (80 nM). For the same compound, the Dmax at 0.001 µM turned out to be 94% in experiment [2] (1 nM) and 92% in experiment [4] (1 nM). In addition, the Dmax at 0.08 µM is 100% in experiment [2] (80 nM) and 99% in experiment [4] (80 nM). Besides, the “Degradation rate of SMARCA2 in SW1573 cells (%)” value is given as 98% in experiment [3] (1 nM) and 100% in experiment [3] (80 nM).
As to `Nc1nnc(-c2ccccc2O)cc1C#CC1CCC2(CC1)CC(N1CCC3(CCc4cc(C(=O)N[C@H]5CCC(=O)NC5=O)c(F)cc4O3)CC1)C2` (stereo partly shown) [SM-P-7], the results for the “Degradation rate of SMARCA2 in HeLa cells (%)” value in experiment [1] (1 nM) and in experiment [1] (80 nM) were 7% and 68%, respectively. Moreover, the Dmax at 0.001 µM in experiment [2] (1 nM) was -29%; in experiment [4] (1 nM), -52%. Besides, the Dmax at 0.08 µM in experiment [2] (80 nM) amounted to 39%; in experiment [4] (80 nM), 28%. The “Degradation rate of SMARCA2 in SW1573 cells (%)” value worked out at 1% in experiment [3] (1 nM) and 66% in experiment [3] (80 nM).
With `Nc1nnc(-c2ccccc2O)cc1C#CC1CCC2(CC1)CC(N1CC3(CCc4cc(F)c(C(=O)N[C@H]5CCC(=O)NC5=O)cc4O3)C1)C2` (stereo partly shown) [SM-P-9], the “Degradation rate of SMARCA2 in HeLa cells (%)” value in experiment [1] (1 nM) is 11%; in experiment [1] (80 nM), 15%. The Dmax at 0.001 µM in experiment [2] (1 nM) was -8%; in experiment [4] (1 nM) it was -7%. For the same compound, the Dmax at 0.08 µM is -5% in experiment [2] (80 nM) and 21% in experiment [4] (80 nM). Moreover, the figures for the “Degradation rate of SMARCA2 in SW1573 cells (%)” value in experiment [3] (1 nM) and in experiment [3] (80 nM) were 3% and 7%, respectively.
For the compound `Nc1nnc(-c2ccccc2O)cc1C#CC1CCC2(CC1)CC(N1CCC3(CCc4cc(F)c(C(=O)N[C@H]5CCC(=O)NC5=O)cc4O3)CC1)C2` (stereo partly shown) [SM-P-12], the “Degradation rate of SMARCA2 in HeLa cells (%)” value was found to be 6% in experiment [1] (1 nM) and 14% in experiment [1] (80 nM). Besides, the Dmax at 0.001 µM in experiment [2] (1 nM) came out at 28%; in experiment [4] (1 nM), 17%. The Dmax at 0.08 µM was found to be 5% in experiment [2] (80 nM) and 24% in experiment [4] (80 nM). Further, the “Degradation rate of SMARCA2 in SW1573 cells (%)” value in experiment [3] (1 nM) and in experiment [3] (80 nM) was 32% in each case.
Take `Nc1nnc(-c2ccccc2O)cc1C#CC1CCC2(CC1)CC(N1CCN3c4ccc(C(=O)N[C@H]5CCC(=O)NC5=O)cc4OCC[C@H]3C1)C2` (stereo partly drawn) [SM-P-13, (S)-3-(7-((3-amino-6-(2-hydroxyphenyl)pyridazin-4-yl)ethynyl)spiro[3.5]nonan-2-yl)-N-((S)-2,6-dioxopyrimidin-3-yl)-2,3,4,4a,5,6-hexahydro-1H-benzo[b]pyrazino[1,2-d] [1,4]oxythiophene-9-carboxamide]: the “Degradation rate of SMARCA2 in HeLa cells (%)” value in experiment [1] (1 nM) was 38%; in experiment [1] (80 nM), 96%. Further, the “Degradation rate of SMARCA4 in SW1573 cells (%)” value is -11% in experiment [2] (1 nM) and 32% in experiment [2] (80 nM). For the same compound, the figures for the “Degradation rate of SMARCA2 in SW1573 cells (%)” value in experiment [3] (1 nM) and in experiment [3] (80 nM) were 32% and 88%, respectively. The “Degradation rate of SMARCA4 in HeLa cells (%)” value in experiment [4] (1 nM) was found to be 19%; in experiment [4] (80 nM) it was 65%.
`Nc1nnc(-c2ccccc2O)cc1C#CC1CCC2(CC1)CC(N1CCC3(CC1)COc1c3ccc(F)c1C(=O)N[C@H]1CCC(=O)NC1=O)C2` (stereo partly shown) [SM-P-19]: the “Degradation rate of SMARCA2 in HeLa cells (%)” value was determined as 14% in experiment [1] (1 nM) and 59% in experiment [1] (80 nM). The “Degradation rate of SMARCA4 in SW1573 cells (%)” value is 1% in experiment [2] (1 nM) and 0% in experiment [2] (80 nM). Besides, the “Degradation rate of SMARCA2 in SW1573 cells (%)” value in experiment [3] (1 nM) stood at 11%; in experiment [3] (80 nM) it was 31%. The “Degradation rate of SMARCA4 in HeLa cells (%)” value in experiment [4] (1 nM) was -11%; in experiment [4] (80 nM), 24%.
In the case of `Nc1nnc(-c2ccccc2O)cc1C#CC1CCC2(CC1)CC(N1CCN3c4ccc(C(=O)N[C@H]5CCC(=O)NC5=O)cc4OC[C@@H]3C1)C2` (stereo partly shown) [SM-P-20], the “Degradation rate of SMARCA2 in HeLa cells (%)” value is recorded as 23% in experiment [1] (1 nM) and 86% in experiment [1] (80 nM). Besides, the “Degradation rate of SMARCA4 in SW1573 cells (%)” value in experiment [2] (1 nM) was -56%; in experiment [2] (80 nM) it was 22%. Besides, the “Degradation rate of SMARCA2 in SW1573 cells (%)” value in experiment [3] (1 nM) stood at 12%; in experiment [3] (80 nM), 76%. Further, the “Degradation rate of SMARCA4 in HeLa cells (%)” value in experiment [4] (1 nM) is on record as 32%; in experiment [4] (80 nM), 65%.
